Measurements from article PMC6981454, “Promising 2,6,9-Trisubstituted Purine Derivatives for Anticancer Compounds: Synthesis, 3D-QSAR, and Preliminary Biological Assays” (International Journal of Molecular Sciences, 2019).

What was measured:
Format in all cases: cell-based, human
HL-60 cells [1] = experiment: Annexin-V FITC/PI apoptosis assay by flow cytometry; conditions: for Q2 (late apoptosis) cells / Q3 (viable) cells: 24 h
Method: To assess an unequivocal identification of apoptosis, annexin-V FITC is commonly combined with PI to understand if cells are viable, apoptotic, or necrotic through differences in plasma membrane integrity and permeability. To better understand the ability of compound 7h (the lowest IC50 values and high SI) to induce cell death, we performed the annexin-V FITC/PI assay. HL-60 cells were treated with 7h at the dose corresponding to 5 and 50 μM by 24 h, then harvested and stained with annexin-V FITC and PI (Figure 8). […] In addition, Figure 8 illustrates a discrete increase in the apoptosis (Q2 and Q4) from 5 to 50 µM, as well as an increase in necrosis at the concentration of 50 µM.
HL60 cells were seeded into a 12-well plate (5 × 10^5 per well) and incubated in RPMI 1640 […] for 24 h at 37 °C—then, replaced with fresh medium containing the tested compound 7h at indicated concentrations for another 24 h. The cells were collected and then used the Annexin-V/PI Alexa Fluor 488 apoptosis kit (Invitrogen, Carlsbad, CA, USA) according to the instruction of manufacturer to detect the apoptosis cells, which were analyzed by flow cytometry (BD; FACScanto II, Mountain View, CA) and data were processed using FCS Express v6 software. Two independent biological replicates were performed.

p53 = experiment: p53-dependent transcriptional activity reporter assay (β-galactosidase) in Arn-8 cells; conditions: p53 reporter assays
Method: Table S3. Results of p53 activity of compounds 4a-u and 7a-j.
Compound fold p53 activity […]
p53-dependent transcriptional activity
To measure p53-dependent transcriptional activity, -galactosidase activity was determined in the human melanoma cell line Arn-8, stably transfected with a p53-responsive reporter construct pRGC foslacZ as described before. After 24 h incubation with the inhibitors, the cells were permeabilized with 0.3% Triton X-100 for 15 min, and then 4-methylumbelliferon-ß-D-galactopyranoside was added as a substrate to a final concentration of 80 µM. […]
fluorescence was measured at 355/460 nm (ex/em) with a Fluoroskan Ascent microplate reader […]
Figure S6. Dose-response effect of roscovitine on p53 activity in ARN8 cells (control experiment).
(1 picture or pasted object on this page, not shown here)

HL-60 cells [2] = experiment: Cell cycle analysis, PI flow cytometry; conditions: HL-60, 25 µM, 48 h
Method: Considering that apoptotic mechanisms are associated with the G1/S boundary cell cycle arrest and the inhibition of cell cycle progression is an important factor to control cancer cell growth, we were interested in investigating whether 7h affects the cell cycle of HL-60 cells. We analyzed the cell cycle distribution of the cells stained with PI using flow cytometry. […] This effect is in agreement with apoptotic mechanisms.
HL60 cells were plated in 6-well plates at a density of 2.0 × 10^5 cells/1.5 mL/well, and grown overnight at 37 °C in a 5% CO2 humidified atmosphere. Cells were treated with compounds 7h at 25 µM concentration or 1% DMSO (controls) for 48 h. Aliquots of cells were collected, pelleted, washed, and fixed with ethanol (70% v/v) for at least 30 min at 4 °C. Cells were twice resuspended in PBS, and after centrifugation and elimination of the supernatant, resuspended in a solution containing PBS, PI ([…], Invitrogen), RNase A (20 mg/mL, Invitrogen). After a final incubation for 1 h in the dark at 37 °C; PI signal was measured using a FACS canto II flowcytometer (BD; Mountain View, CA) with a 488 nm excitation laser, captured, and FACS Diva was used as the acquisition software. The percentage of cells in each phase was analyzed using the FCS Express v6 software. Three independent biological replicates were performed.

HL-60 cells [3] = experiment: Cell viability by propidium iodide flow cytometry; conditions: HL-60, 50 μM, 24 h, PI staining
Text: Next, in order to determinate the cell death type induced by the most promising compounds, we performed a flow cytometry analysis of cell viability in cell line HL-60 treated with the most promising compounds (selected according to their IC50 values and SI). The HL-60 cancer cells were chosen due to their sensitivity to prepared compounds. […] As a preliminary apoptosis filter, propidium iodide (PI) staining was used through flow cytometry analysis which discriminated a population of viable cells impermeable to PI (PI negative) from necrotic cells PI-permeable (PI positive) and apoptotic cells (the difference of the previous two). The results are shown in Figure 7, illustrating that all purine derivatives tested induced apoptosis on HL-60 cells. Around 40% of apoptotic cells were detected in a culture treated with compounds 7a and 7i, 30% by 7e, 7g, and 7h and 70% by 7d and 7j. […] (For dot plots, see Supplementary Information Figures S1–S3.)
Cell viability was analyzed by flow cytometry as previously described. In this assay, after setting the baseline to exclude cell debris, cells impermeable to propidium iodide (PI negative) are considered as viable. Two populations of PI-permeable dead cells are distinguished based on fluorescence intensity, corresponding to either hypodiploid apoptotic cells or necrotic cells with intact DNA. Here, HL60 cells were incubated with concentrations of 50 µM of each compound for 24 h at 37 °C. Cells were harvested and stained with 10 µg/mL of propidium iodide to determine cell viability. Samples containing roughly 1 × 10^4 cells were evaluated by flow cytometry (FACScanto II; Becton Dickinson, Mountain View, CA) and analyzed using FCS Express v6 software. Three independent biological replicates were performed.

Q: What does the source list for `O=[N+]([O-])c1ccc(N2CCN(c3nc(Cl)nc4c3ncn4C3CCCC3)CC2)cc1` [7h, 2-Chloro-9-cyclopentyl-6-(4-(4-nitrophenyl)piperazin-1-yl)-9H-purine]?
A: Q2 (late apoptosis) cells (HL-60 cells [1]; HL-60, 5 μM): 36.5%; Q3 (viable) cells (HL-60 cells [1]; HL-60, 5 μM, 5 µM): ~55%; Q2 (late apoptosis) cells (HL-60 cells [1]; HL-60, 50 μM): 37.7%; Q3 (viable) cells (HL-60 cells [1]; HL-60, 50 μM, 50 µM): 38%; viability at 5 µM (HL-60 cells [1]; Homo sapiens, HL-60, 24 h, HL-60, 5 μM, read-out: Q3 (viable) cells): 55.2%; viability at 50 µM (HL-60 cells [1]; Homo sapiens, HL-60, 24 h, HL-60, 50 μM, read-out: Q3 (viable) cells): 37.8%; effect on p53 activation (p53): no effect on p53 activation; effect on cell cycle distribution (HL-60 cells [2]): accumulation of cells in S cell cycle phase; apoptotic cells (HL-60 cells [3]): ~30%
